Data: patent EP0247723A2, “Compositions and methods for treating allergic conjuctivitis” (MERCK FROSST CANADA INC., priority 1986, dated 1987)
Marks after values point to notes of the source that are not given here.

System: ANTIGEN-INDUCED VASCULAR PERMEABILITY CHANGES IN GUINEA-PIG CONJUNCTIVA
Assay: Inhibition of antigen-induced ocular inflammation (vascular permeability, extravasation of [99mTc]-human serum albumin into the conjunctiva)
Format: in vivo
Settings: ovalbumin-sensitized guinea-pigs
Procedure: Guinea-pigs were actively sensitized to produce IgG1 and IgE antibodies to ovalbumin (2 weeks). Animals were then challenged topically in the eyes (10 µl of 2.5% w/v ovalbumin per eye) followed by intravenous administration of [^99mTc]-human serum albumin (0.25 mCi). Animals were then challenged with antigen either once or twice (2nd challenge 24 hours later). The response was a marked increase in vascular permeability as measured by extravasation of [^99mTc]-labelled human serum albumin into the conjunctiva.
To measure the inhibitory effect of Compounds I-IV, at varying times before antigen challenge, Compounds I-IV were administered either i.v. (1 mg/kg dosage) or topically (0.1% suspensions or_ solutions in 10 µl of 0.5% hydroxy ethylcellulose).

[1] = second challenge (24 hours later), topical 0.1% in 10 µl of 0.5% hydroxy ethylcellulose, pre-treat. time 5 min
[2] = single challenge, topical 0.1% in 10 µl of 0.5% hydroxy ethylcellulose, pre-treat. time 5 min

SMILES	% Inhib. [1]	% Inhib. [2]	% Inhib. (second challenge (24 hours later), i.v. 1 mg/kg, pre-treat. time 2 min)	% Inhib. (single challenge, i.v. 1 mg/kg, pre-treat. time 2 min) [%]	% Inhib. (second challenge (24 hours later), topical 0.1% in 10 µl of 0.5% hydroxy ethylcellulose, pre-treat. time 60 min)
CCCc1c(OCCCSc2ccc([C@H](O)[C@@H](C)CC(=O)O)cc2)ccc(C(C)=O)c1O (relative stereo) [II, (BS^*,YR^*)-4-(3-(4-acetyl-3-hydroxy-2-propyl-phenoxy)propylthio)-Y-hydroxy-B-methylbenzene-butanoic acid]	30.3* %	0%			
CCCc1c(OCCCS(=O)(=O)c2ccc(C(=O)CCC(=O)O)cc2)ccc(C(C)=O)c1O [Compound I, 4-((3-(4-acetyl-3-hydroxy-2-propylphenoxy)-propyl)sulfonyl)-Y-oxobenzene butanoic acid]	37.0** %	1.7%	42.2** %	1.5	
COc1ccc2nc3cc(OC)c(=O)c(Br)c-3sc2c1 [III, 4-bromo-2,7-dimethoay-3H-phenothiazin-3-one]	48.0* %	38.8*** %			
OCc1ccccc1C=CCc1cc2c(cc1O)CCO2 [IV, 2,3-dihydro-6-(3-(2-hydroxymethyl)phenyl-2-propenyl)-5-benzofuranol]		28.8** %			59.5* %
